Reference: the supplement of paper PMC10627819

Legend:
[1] = system: S. pneumoniae D39V; test: Bliss interaction score (quartile over a dose matrix) (fitness difference); higher = more antagonism (negative = synergy)
How it was run: (§1)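 Growth in each well was taken as OD595 at entry into stationary phase. Dividing by the plate's robust no-drug mean and capping at 1 gave fitness, and single-drug fitness was inferred from the combination data. The Bliss score, observed minus product-expected fitness, is summarised by quartiles over technical, biological and donor/recipient replicates.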

[2] = system: S. aureus DSM 20231; test: as above
How it was run: as §1

[3] = system: S. aureus Newman; test: as above
How it was run: as §1

[4] = system: B. subtilis 168; test: as above
How it was run: as §1

[5] = system: S. pneumoniae D39V; test: fitness (endpoint OD595 vs no drug) (fraction); higher = more growth
How it was run: (§2)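 Growth medium was TSB, LB Lennox or CY, and plates were kept at 37 °C. Inoculation was at OD595 0.01 in 384-well plates, at 30 µl per well or 55 µl for S. pneumoniae. OD595 was monitored every 30 min for 14 h and background-subtracted using the first reading. Fitness is the optical density on entering stationary phase divided by the robust mean of no-drug controls, with values capped at 1.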

[6] = system: S. aureus DSM 20231; test: as above
How it was run: as §2

[7] = system: S. aureus Newman; test: as above
How it was run: as §2

[8] = system: B. subtilis 168; test: as above
How it was run: as §2
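Wherever Bliss interaction score (quartile over a dose matrix) is given: first quartile when negative (synergy) and third quartile when positive (antagonism).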

O=C(O[C@@H]1Cc2c(O)cc(O)cc2O[C@@H]1c1cc(O)c(O)c(O)c1)c1cc(O)c(O)c(O)c1 [EGCG] + CC1=C\[C@@H](O)CC(=O)Cc2nc(co2)C(=O)N2CCC=C2C(=O)O[C@H](C(C)C)[C@H](C)/C=C/C(=O)NC\C=C\1 [Virginiamycin M1]
Conditions | Bliss interaction score
[1] | -0.092
[2] | 0.119
[3] | 0.0651
[4] | 0.0619

fitness, one replicate
Conditions | first compound 12.5 µg/mL | first compound 25 µg/mL | first compound 50 µg/mL
[5], partner 0.15 µg/mL | 0.891 | 0.872 | 0.883
[5], partner 0.3 µg/mL | 0.823 | 0.847 | 0.842
[6], partner 0.5 µg/mL | 0.807 | 0.715 | 0.694
[6], partner 1 µg/mL | 0.67 | 0.65 | 0.543
[7], partner 0.5 µg/mL | 0.678 | 0.728 | 0.682
[7], partner 1 µg/mL | 0.702 | 0.715 | 0.677
[7], partner 2 µg/mL | 0.671 | 0.624 | 0.622

fitness
Conditions | partner 0.0625 µg/mL | partner 0.125 µg/mL | partner 0.25 µg/mL | partner 0.5 µg/mL | partner 1 µg/mL | partner 2 µg/mL
[5], first compound 12.5 µg/mL | – | – | – | 0.973 | 0.958 | 0.921
[5], first compound 25 µg/mL | – | – | – | ≥ 1 | ≥ 1 | 0.89
[5], first compound 50 µg/mL | – | – | – | 0.965 | 0.946 | 0.889
[6], first compound 12.5 µg/mL | 0.86 | 0.931 | 0.686 | – | – | –
[6], first compound 25 µg/mL | 0.859 | ≥ 1 | 0.904 | – | – | –
[6], first compound 50 µg/mL | 0.76 | 0.986 | 0.82 | – | – | –
[7], first compound 12.5 µg/mL | 0.811 | 0.858 | 0.817 | – | – | –
[7], first compound 25 µg/mL | 0.868 | 0.897 | 0.865 | – | – | –
[7], first compound 50 µg/mL | 0.925 | 0.96 | 0.878 | – | – | –
[8], first compound 6.25 µg/mL | 0.973 | 0.974 | 0.997 | – | – | –

O=C(O[C@@H]1Cc2c(O)cc(O)cc2O[C@@H]1c1cc(O)c(O)c(O)c1)c1cc(O)c(O)c(O)c1 [EGCG] + CCN(CC)CCOC(=O)c1ccc(N)cc1 [Procaine]
Conditions | Bliss interaction score
[1] | 0.0572
[2] | 0.0893
[3] | -0.124
[4] | -0.0744

fitness
Conditions | partner 85.5 µg/mL | partner 171 µg/mL | partner 342 µg/mL
[5], first compound 12.5 µg/mL | 0.965 | 0.984 | 0.912
[5], first compound 25 µg/mL | 0.969 | ≥ 1 | 0.969
[5], first compound 50 µg/mL | 0.996 | 0.903 | ≥ 1
[6], first compound 12.5 µg/mL | 0.821 | 0.821 | 0.833
[6], first compound 25 µg/mL | 0.809 | 0.858 | 0.886
[6], first compound 50 µg/mL | – | 0.854 | –
[7], first compound 12.5 µg/mL | 0.729 | 0.764 | 0.77
[7], first compound 25 µg/mL | 0.641 | 0.71 | 0.78
[8], first compound 6.25 µg/mL | 0.913 | 0.882 | 0.88
[8], first compound 12.5 µg/mL | 0.715 | 0.75 | 0.599
[8], first compound 25 µg/mL | – | – | 0.227

O=C(O[C@@H]1Cc2c(O)cc(O)cc2O[C@@H]1c1cc(O)c(O)c(O)c1)c1cc(O)c(O)c(O)c1 [EGCG] + CN1C2=CC=CC=C2N=C3C1=CC=CC3=O [Pyocyanin]
Conditions | Bliss interaction score
[1] | -0.0423
[2] | -0.114
[3] | -0.0806
[4] | 0.187

fitness
Conditions | first compound 6.25 µg/mL | first compound 12.5 µg/mL | first compound 25 µg/mL | first compound 50 µg/mL
[5], partner 0.325 µg/mL | – | 0.986 | ≥ 1 | ≥ 1
[5], partner 0.65 µg/mL | – | 0.976 | 0.98 | 0.925
[5], partner 1.3 µg/mL | – | 0.638 | 0.628 | 0.75
[6], partner 1.25 µg/mL | – | 0.677 | 0.689 | –
[6], partner 2.5 µg/mL | – | 0.693 | 0.682 | 0.624
[6], partner 5 µg/mL | – | 0.555 | 0.56 | 0.492
[7], partner 1.25 µg/mL | – | 0.679 | 0.616 | –
[7], partner 2.5 µg/mL | – | 0.647 | 0.548 | –
[7], partner 5 µg/mL | – | 0.403 | 0.409 | 0.315
[8], partner 1.25 µg/mL | 0.81 | 0.898 | – | –
[8], partner 2.5 µg/mL | 0.831 | 0.805 | 0.638 | –
[8], partner 5 µg/mL | 0.662 | 0.645 | 0.485 | –

O=C(O[C@@H]1Cc2c(O)cc(O)cc2O[C@@H]1c1cc(O)c(O)c(O)c1)c1cc(O)c(O)c(O)c1 [EGCG] + CN(N=O)C(=O)N[C@@H](C=O)[C@@H](O)[C@H](O)[C@H](O)CO [Streptozotocin]
Conditions | Bliss interaction score
[1] | 0.0662
[2] | -0.0464
[3] | -0.0449
[4] | -0.0853

fitness
Conditions | first compound 6.25 µg/mL | first compound 12.5 µg/mL | first compound 25 µg/mL | first compound 50 µg/mL
[5], partner 1.2 µg/mL | – | 0.911 | 0.947 | 0.919
[5], partner 2.4 µg/mL | – | 0.891 | 0.935 | 0.91
[5], partner 4.8 µg/mL | – | 0.907 | ≥ 1 | ≥ 1
[6], partner 0.15 µg/mL | – | 0.763 | 0.702 | 0.683
[6], partner 0.3 µg/mL | – | 0.643 | 0.635 | 0.658
[6], partner 0.6 µg/mL | – | 0.597 | 0.595 | 0.499
[7], partner 0.15 µg/mL | – | 0.711 | 0.804 | 0.783
[7], partner 0.3 µg/mL | – | 0.737 | 0.477 | 0.752
[7], partner 0.6 µg/mL | – | 0.404 | 0.416 | 0.572
[8], partner 0.15 µg/mL | 0.913 | 0.571 | – | –
[8], partner 0.3 µg/mL | 0.856 | 0.62 | 0.449 | –
[8], partner 0.6 µg/mL | 0.915 | 0.515 | 0.391 | –

O=C(O[C@@H]1Cc2c(O)cc(O)cc2O[C@@H]1c1cc(O)c(O)c(O)c1)c1cc(O)c(O)c(O)c1 [EGCG] + CN[C@@H]1[C@H](O)[C@H](NC)[C@H]2O[C@@]3(O)C(=O)C[C@@H](C)O[C@H]3O[C@@H]2[C@H]1O [Spectinomycin]
Conditions | Bliss interaction score
[1] | -0.0456
[2] | -0.0655
[3] | -0.0777
[4] | -0.0513

fitness
Conditions | [5] | [6] | [7] | [8]
first compound 6.25 µg/mL, partner 2 µg/mL | – | – | – | 0.919
first compound 6.25 µg/mL, partner 4 µg/mL | – | – | – | 0.959
first compound 6.25 µg/mL, partner 8 µg/mL | – | – | – | 0.942
first compound 12.5 µg/mL, partner 4 µg/mL | 0.918 | 0.716 | 0.775 | –
first compound 12.5 µg/mL, partner 8 µg/mL | 0.892 | 0.841 | 0.825 | 0.755
first compound 12.5 µg/mL, partner 16 µg/mL | 0.662 | 0.783 | 0.783 | –
first compound 25 µg/mL, partner 4 µg/mL | 0.884 | 0.795 | 0.631 | –
first compound 25 µg/mL, partner 8 µg/mL | 0.858 | 0.829 | 0.784 | 0.351
first compound 25 µg/mL, partner 16 µg/mL | 0.692 | 0.696 | – | –
first compound 50 µg/mL, partner 4 µg/mL | 0.928 | 0.762 | – | –
first compound 50 µg/mL, partner 8 µg/mL | 0.942 | 0.778 | 0.748 | –
first compound 50 µg/mL, partner 16 µg/mL | – | 0.724 | – | –

fitness, one replicate
Conditions | first compound 12.5 µg/mL | first compound 25 µg/mL | first compound 50 µg/mL
[6], partner 32 µg/mL | 0.732 | 0.693 | 0.556
[6], partner 64 µg/mL | 0.118 | 0.0939 | 0.028
[7], partner 32 µg/mL | 0.385 | 0.167 | 0.0466
[7], partner 64 µg/mL | 0.0419 | 0.0446 | 0.0186
